The values below are quoted from earlier work in US20110245183A1, “Topical Uses of Szeto-Schiller Peptides” (priority 2010, published 2011).

Where no end group is shown, it is not given here. [ ]: non-standard residue; d: D form. Dmt = Cc1cc(O)cc(C)c1C[C@H](N)C(=O)O

Data set [1] has as its system isolated mitochondria. The note with it: MPP+ (1-methyl-4-phenylpyridium).
Data set [2] relates to Parkinson's Disease (PD) or Amyotrophic Lateral Sclerosis (ALS). The note with it: mice studies.
Data set [3] has as its system LDL.

With “D-Arg-2′,6′-Dmt-Lys-Phe-NH2 ([dR][Dmt]KF-NH2) [SS-31]”, in data set [1], the “MPP+-induced inhibition of ATP production” value is “prevented”, the “MPP+-induced inhibition of oxygen consumption” value is recorded as “prevented” and the “MPP+-induced mitochondrial swelling” value is given as “prevented”. Moreover, the “effectiveness in the treatment of Parkinson's Disease (PD) or Amyotrophic Lateral Sclerosis (ALS)” value in data set [2] is “may be effective”. In addition, the “inhibiting LDL oxidation” value in data set [3] is “as effective as SS-02”.

Consider “Phe-D-Arg-Phe-Lys-NH2 (F[dR]FK-NH2; N-terminus assumed; SMILES N=C(N)NCCC[C@@H](NC(=O)[C@@H](N)Cc1ccccc1)C(=O)N[C@@H](Cc1ccccc1)C(=O)N[C@@H](CCCCN)C(N)=O) [SS-20]”, for which, in data set [1], the “MPP+-induced inhibition of ATP production” value is given as “prevented”, the “MPP+-induced inhibition of oxygen consumption” value is reported as “prevented” and the “MPP+-induced mitochondrial swelling” value is listed as “prevented”. The “effectiveness in the treatment of Parkinson's Disease (PD) or Amyotrophic Lateral Sclerosis (ALS)” value in data set [2] is reported as “may be effective”.
